Six compounds from patent publication US20240325402A1, “MOMELOTINIB COMBINATION THERAPY” (GlaxoSmithKline LLC, priority 2021, published 2024) can be followed below.

Structures can show the parent of a compound that is named as a salt. Where two headings read alike, the source gives them in different places.

In the experiment the test system is NF-kB reporter activity. Kind of experiment: NF-kB luciferase reporter assay (TNFa-stimulated NF-kB Reporter-HEK293 cells). Format: cell-based, human. The conditions noted are these: for inhibition at 10 µM / IC50 / Percent Inhibition at 10 uM: NF-kB Reporter-HEK293 cells; for inhibition at 10 µM / Percent Inhibition at 10 uM: compound at 10 uM; for inhibition at 10 µM: read-out: Percent Inhibition at 10 uM. As for the experimental part:
NF-kB Reporter-HEK293 cell line (BPS Bioscience #60650); MEM medium (Hyclone #SH30024.01); Fetal bovine serum (Life Technologies #10082147); Non-essential amino acid (Corning 25-025-C1); Na-pyruvate (Hyclone #SH30239.01); Pen-strep (Hyclone #SV30010); Hygromycin B (Invitrogen/Thermo-Fisher #10687010); IKK-16 dihydrochloride—NF-kB inhibitor (Sigma SML1138); TNFa (R&D Systems 210-TA); ONE-Step luciferase assay system (BPS Bioscience #60690).
Cell culture. Cells were cultured in MEM medium with 10% FBS, 1% non-essential amino acid, 1 mM Na-pyruvate, 1% Pen-strep, and 50 μg/mL Hygromycin B.
To perform the NF-kB luciferase reporter assay, NF-kB Reporter—HEK293 cells were seeded at 30,000 cells per well into white clear-bottom 96-well microplate in 60 μL of assay medium (growth medium without Hygromycin B). Cells were incubated at 37° C. and 5% CO2 for 5 hours to allow them attach. A serial dilution of compounds was prepared in assay medium without Hygromycin B. Thirty μL of diluted compounds was added to the treatment wells at the end of the day. Thirty μL of assay medium with the same concentration of DMSO without compound was added to the control wells. One hundred μL of assay medium with DMSO was added to cell-free control wells for determining background luminescence. Cells were incubated at 37° C. and 5% CO2 overnight.
The next day ten μL of diluted human TNFa in assay medium was added to wells (final [TNFa]=10 ng/mL). Ten μL of assay medium was added to unstimulated control wells. Cells were incubated at 37° C. and 5% CO2 for 5-6 hours. After treatment, cells were lysed and the luciferase assay was performed using ONE-Step luciferase assay system: add 100 μL of One-Step Luciferase reagent per well and rock at room temperature for ˜30 minutes. Luminescence was measured using a luminometer (BioTek Synergy™ 2 microplate reader).

The mark [1] stands for this setting: Homo sapiens, TNFa 10 ng/mL, curve fit with top and bottom locked, read-out: IC50 Lock top and bottom of curve.
[2] abbreviates: Homo sapiens, overnight compound, TNFa 10 ng/mL 5-6 hours, luciferase, read-out: IC50 against NF-kB reporter activity.
Where [3] appears, read: TNFa 10 ng/mL, curve fit with top and bottom locked, read-out: IC50 Lock top and bottom of curve.
The mark [4] stands for this setting: overnight compound, TNFa 10 ng/mL 5-6 hours, luciferase, read-out: IC50 against NF-kB reporter activity.

Usually inhibition stands for the change of the read-out against control, counted positive when it falls. For orientation: IC50 means the midpoint of a concentration-inhibition curve. On to `Cc1noc2c1-c1ccccc1C(c1ccc(Cl)cc1)=N[C@H]2CC(N)=O` [CPI-0610], for which the inhibition at 10 µM (Homo sapiens, TNFa 10 ng/mL) came to 78%. Besides, the IC50 runs as follows: under setting [1], 540 nM; under setting [2], 270 nM.

For `Cc1cnc(Nc2ccc(OCCN3CCCC3)cc2)nc1Nc1cccc(S(=O)(=O)NC(C)(C)C)c1` [Fedratinib (TG101348)], the “Percent Inhibition at 10 uM” value (TNFa 10 ng/mL) was found to be 99%. Further, the IC50 turned out to be 2900 nM under setting [3] and 6100 nM under setting [4].

Take `O=C(c1ccc(Nc2nccc(-c3cc4ccccc4s3)n2)cc1)N1CCC(N2CCCC2)CC1` [IKK-16 dihydrochloride]: the “Percent Inhibition at 10 uM” value (TNFa 10 ng/mL) is recorded as 88%. In addition, the IC50 under setting [3] stood at 260 nM and the IC50 under setting [4] is 330 nM.

On to `N#CCNC(=O)c1ccc(-c2ccnc(Nc3ccc(N4CCOCC4)cc3)n2)cc1` [MMB/Momelotinib, N-(cyanomethyl)-4-(2-(4-morpholinophenylamino)pyrimidin-4-yl)benzamide], for which, where the note is “Homo sapiens, TNFa 10 ng/mL”, the inhibition at 10 µM was determined as 100%. The IC50 turned out to be 430 nM under setting [1] and 470 nM under setting [2]. The “downregulation of NF-κB signaling in a luciferase assay” value (cellular data, compounds ran in parallel) is recorded as “downregulates NF-κB signaling”.

In the case of `C1=C/COCc2cc(ccc2OCCN2CCCC2)Nc2nccc(n2)-c2cccc(c2)COC/1` [Pacritinib (SB1518)], the inhibition at 10 µM (Homo sapiens, TNFa 10 ng/mL) turned out to be 100%. In addition, the IC50 by setting is: under setting [1], 1200 nM; under setting [2], 1400 nM.

Turning to `N#CC[C@H](C1CCCC1)n1cc(-c2ncnc3[nH]ccc23)cn1` [Ruxolitinib (INCB018424)], where the note is “Homo sapiens, TNFa 10 ng/mL”, the inhibition at 10 µM is -11%.
